Assay results from patent US4550101A, “Iron complexes of hydroxy pyridones useful for treating iron deficiency anemia” (priority 1982, dated 1985).
Read-outs that look alike come from different tables or passages of the source.

Key:
[1] = Partition between n-octanol and aqueous tris hydrochloride (Kpart); type: physicochemical; conditions: for Partition Coefficient, Kpart, Iron complex [Fe^III-(compound)3]: 100 µM
Description: Acid washed glassware is used throughout and, following mixing of 5 ml of the 10^-4 M aqueous solution with 5 ml of n-octanol for 1 minute, the aqueous n-octanol mixture is centrifuged at 1,000 g for 30 seconds. The two resulting phases are separated for a concentration determination by spectrophotometry on each.

[2] = test system: human erythrocytes; conditions: pH 7.4
Description: (§1) Following this period of incubation, an aliquot of the erythrocyte/medium mixture was placed above a layer of silcone oil and the erythrocytes separated by centrifugation through the oil. The ^59 Fe levels associated with the erythrocytes and the incubation medium were then counted.

[3] = test system: apotransferrin; test: Ability of iron complexes to donate iron to apotransferrin; type: biochemical; conditions: within 10 minutes, 37° C., pH 7.4, 10^-4 M complex, 10^-4 M apotransferrin
Description: At 10, 20, 30 and 60 minute intervals 1 ml aliquots were removed from the media and added to a PD10 colum. 0.5 ml fractions were collected directly into scintillation vials for counting. The ^59 Fe associated with both the apotransferrin and the ligand was estimated as a function of time. […] Thus, although both the 3-hydroxypyrid-2-ones and the 3-hydroxypyrid-4-ones are able to denote iron to apotransferrin, the former are the more efficient.

[4] = test system: rat jejunal sac; test: Iron uptake into the serosal space of the inverted rat jejunal sac
Description: Rats (male Sprague Dawley, 60 g) were killed and the jejunum removed, everted and cut into three segments (4 cm length). The segments were tied at both ends and filled with Krebs Ringer buffer (0.2 ml) and incubated in Krebs Ringer buffer containing ^59 Fe complexes at 37° C. for periods up to 1 hour. The contents of the sac were counted for ^59 Fe and measured spectrophotometrically.

[5] = test system: cat intestine; conditions: in vivo
Description: (§2) The total ^59 Fe present in the kidneys and urine was then measured in each case.
(§3) As well as the kidneys, various other tissues of the cat which recieved the Fe(III) 1-ethyl-3-hydroxypyrid-2-one were studied to assess the percentage of the original ^59 Fe dose which was present.

[6] = Clearance and tissue distribution of 59Fe after intravenous injection in the cat; type: in vivo
Description: as §3

[7] = test system: human erythrocytes; test: Accumulation of iron complexes by human erythrocytes; conditions: 1 hour, 37° C., pH 7.4, 10^-3 M complex, 5% erythrocyte suspension; mean of at least three determinations
Description: as §1

[8] = test system: cat intestine; test: In vivo permeability of cat intestine towards iron complexes: 59Fe in blood, kidneys, urine and tissues after administration into the small intestine; conditions: for Concentration of [59Fe] in blood: 1 mg iron, pyridone complex with 20-fold excess of free pyridone
Description: as §2, §3

[9] = n-octanol / 20 mM tris hydrochloride pH 7.4, 20° C., 10^-4 M, read-out: Partition Coefficient, Kpart, Free Compound (converted)
[10] = n-octanol/tris hydrochloride, pH 7.4
[11] = relative to ferric chloride as 1, 37° C., up to 1 hour

CCCCn1ccc(=O)c(O)c1C [1-butyl-3-hydroxy-2-methylpyrid-4-one, 1-Butyl-3-hydroxy-2-methylpyrid-4-one]
logD at 100 µM [1, 9]: 0.724

CCn1ccc(=O)c(O)c1C [1-ethyl-3-hydroxy-2-methylpyrid-4-one, 1-Ethyl-3-hydroxy-2-methylpyrid-4-one]
logD at 100 µM [1, 9]: -0.398

CCn1cccc(O)c1=O [1-ethyl-3-hydroxypyrid-2-one]
logD at 100 µM [1, 10]: -0.284

Cc1c(O)c(=O)ccn1C(C)C [3-Hydroxy-2-methyl-1-(1'-methylethyl)pyrid-4-one]
logD at 100 µM [1, 9]: -0.0223

Cc1c(O)c(=O)ccn1C [3-hydroxy-1,2-dimethylpyrid-4-one]
logD at 100 µM [1, 10]: -0.678

CC(C)n1cccc(O)c1=O [3-hydroxy-1-(1'-methylethyl)-pyrid-2-one, 3-hydroxy-1-(1'-methylethyl)pyrid-2-one]
logD at 100 µM [1, 10]: 0.491

Cn1cccc(O)c1=O [3-hydroxy-1-methylpyrid-2-one]
logD at 100 µM [1, 10]: -0.357

CCCn1cccc(O)c1=O [3-hydroxy-1-propylpyrid-2-one]
logD at 100 µM [1, 10]: -0.108

CCCCn1ccc(=O)c([O-])c1C.CCCCn1ccc(=O)c([O-])c1C.CCCCn1ccc(=O)c([O-])c1C.[Fe+3] [3:1 iron (III) complex of 1-butyl-3-hydroxy-2-methylpyrid-4-one]
Partition Coefficient, Kpart, Iron complex [Fe^III-(compound)3] [1, 10]: 7.70 | Amount of complex entering erythrocytes [2]: 1630 n.mole

CCn1ccc(=O)c([O-])c1C.CCn1ccc(=O)c([O-])c1C.CCn1ccc(=O)c([O-])c1C.[Fe+3] [3:1 iron (III) complex of 1-ethyl-3-hydroxy-2-methylpyrid-4-one]
Partition Coefficient, Kpart, Iron complex [Fe^III-(compound)3] [1, 10]: 0.03 | iron removed from the iron complex by apotransferrin [3]: 55% | Amount of complex entering erythrocytes [2]: 20 n.mole

Cc1c([O-])c(=O)ccn1C.Cc1c([O-])c(=O)ccn1C.Cc1c([O-])c(=O)ccn1C.[Fe+3] [3:1 iron (III) complex of 3-hydroxy-1,2-dimethylpyrid-4-one]
Partition Coefficient, Kpart, Iron complex [Fe^III-(compound)3] [1, 10]: 0.05 | Amount of complex entering erythrocytes [2]: 25 n.mole

Cc1c([O-])c(=O)ccn1C(C)C.Cc1c([O-])c(=O)ccn1C(C)C.Cc1c([O-])c(=O)ccn1C(C)C.[Fe+3] [3:1 iron (III) complex of 3-hydroxy-1-(1'-methylethyl)-2-methylpyrid-4-one]
Partition Coefficient, Kpart, Iron complex [Fe^III-(compound)3] [1, 10]: 0.20 | Amount of complex entering erythrocytes [2]: 22 n.mole

CC(C)n1cccc([O-])c1=O.CC(C)n1cccc([O-])c1=O.CC(C)n1cccc([O-])c1=O.[Fe+3] [3:1 iron (III) complex of 3-hydroxy-1-(1'-methylethyl)pyrid-2-one]
Partition Coefficient, Kpart, Iron complex [Fe^III-(compound)3] [1, 10]: 13.50 | Amount of complex entering erythrocytes [2]: 770 n.mole

Cn1cccc([O-])c1=O.Cn1cccc([O-])c1=O.Cn1cccc([O-])c1=O.[Fe+3] [3:1 iron (III) complex of 3-hydroxy-1-methylpyrid-2-one]
Partition Coefficient, Kpart, Iron complex [Fe^III-(compound)3] [1, 10]: 0.10 | Amount of complex entering erythrocytes [2]: 60 n.mole

CCCn1cccc([O-])c1=O.CCCn1cccc([O-])c1=O.CCCn1cccc([O-])c1=O.[Fe+3] [3:1 iron (III) complex of 3-hydroxy-1-propylpyrid-2-one]
Partition Coefficient, Kpart, Iron complex [Fe^III-(compound)3] [1, 10]: 6.20 | Amount of complex entering erythrocytes [2]: 710 n.mole

CCCn1ccc(=O)c([O-])c1C.CCCn1ccc(=O)c([O-])c1C.CCCn1ccc(=O)c([O-])c1C.[Fe+3] [3:1 iron (III) complex of 3-hydroxy-2-methyl-1-propylpyrid-4-one]
Amount of complex entering erythrocytes [2]: 53 n.mole

[Cl][Fe]([Cl])[Cl] [FeCl3, ferric chloride]
Relative Iron Uptake [4]: 1

O=C([O-])[C@H](O)[C@@H](O)[C@H](O)[C@H](O)CO.O=C([O-])[C@H](O)[C@@H](O)[C@H](O)[C@H](O)CO.[Fe+2] [Fe^II gluconate]
Relative Iron Uptake [4]: 1.6

O=C([O-])CN(CCN(CC(=O)[O-])CC(=O)[O-])CC(=O)[O-].[Fe+3] [Fe^III EDTA, iron (III) EDTA]
percentage of the total dose in the urine ([5]; cat, 4 h): 21% | clearance into the urine [5]: cleared rapidly into the urine

O=C1O[C@H]([C@@H](O)CO)C(O)=C1O [Fe^III ascorbate, iron (III) ascorbate, reference compound]
logD at 100 µM [1, 10]: -2.82 | Relative Iron Uptake [4, 11]: 0.4

CCn1cccc([O-])c1=O.CCn1cccc([O-])c1=O.CCn1cccc([O-])c1=O.[Fe+3] [iron complex of 1-ethyl-3-hydroxypyrid-2-one]
Partition Coefficient, Kpart, Iron complex [Fe^III-(compound)3] ([1]; n-octanol / 20 mM tris hydrochloride pH 7.4, 20° C., 10^-4 M): 1.06 | iron removed from the iron complex by apotransferrin [3]: over 90% | Relative Iron Uptake [4, 11]: 37 | dose appearing in the urine [6]: less than 1% | half life of clearance from the circulation [6]: 45 min | Percentage of original 59Fe dose, Blood ([6]; after 4 hours): 7% | Percentage of original 59Fe dose, Heart ([6]; after 4 hours): 1.1% | Percentage of original 59Fe dose, Kidneys ([6]; after 4 hours): 1% | Percentage of original 59Fe dose, Liver ([6]; after 4 hours): 5.3% | Percentage of original 59Fe dose, Skeletal Muscle ([6]; after 4 hours): 0.5% | Percentage of original 59Fe dose, Spleen ([6]; after 4 hours): 0.7% | Percentage of original 59Fe dose, Urine ([6]; after 4 hours): 0.5% | Percentage of original 59Fe dose, Reticuloendothelial System (Bone Marrow) ([6]; after 4 hours, estimated): ~80% | Amount of complex entering erythrocytes [7]: 250 n.mole | Concentration of [59Fe] in blood ([8]; 20 minutes after administration into small intestine): 200 c.p.m. | Concentration of [59Fe] in blood ([8]; 40 minutes after administration into small intestine): 475 c.p.m. | Concentration of [59Fe] in blood ([8]; 60 minutes after administration into small intestine): 643 c.p.m. | Concentration of [59Fe] in blood ([8]; 80 minutes after administration into small intestine): 661 c.p.m. | Concentration of [59Fe] in blood ([8]; 100 minutes after administration into small intestine): 784 c.p.m. | Concentration of [59Fe] in blood ([8]; 120 minutes after administration into small intestine): 870 c.p.m. | Concentration of [59Fe] in blood ([8]; 140 minutes after administration into small intestine): 834 c.p.m. | Concentration of [59Fe] in blood ([8]; 160 minutes after administration into small intestine): 750 c.p.m. | Concentration of [59Fe] in blood ([8]; 180 minutes after administration into small intestine): 900 c.p.m. | clearance into the urine ([8]; 4 hours, into small intestine): very slow | percentage of the total dose in the kidneys ([8]; 4 hours, into small intestine): 0.05% | percentage of the total dose in the urine ([8]; 4 hours, into small intestine): no more than 0.01% | Concentration of [59Fe] in blood ([8]; 240 minutes after administration into small intestine): 948 c.p.m. | 59Fe in the sternum ([8]; confirms reticuloendothelial system (bone marrow)): high levels of ^59 Fe in the sternum | distribution of the iron in the body ([8]; intrajejunal): widely distributed throughout the body | Percentage of original 59Fe dose, Blood ([8]; intrajejunal, after 4 hours): 3% | Percentage of original 59Fe dose, Heart ([8]; intrajejunal, after 4 hours): 1.5% | Percentage of original 59Fe dose, Intestinal Tissue ([8]; intrajejunal, after 4 hours): 30% | Percentage of original 59Fe dose, Kidneys ([8]; intrajejunal, after 4 hours): 0.05% | Percentage of original 59Fe dose, Liver ([8]; intrajejunal, after 4 hours): 1.6% | Percentage of original 59Fe dose, Skeletal Muscle ([8]; intrajejunal, after 4 hours): 0.8% | Percentage of original 59Fe dose, Spleen ([8]; intrajejunal, after 4 hours): 0.1% | Percentage of original 59Fe dose, Urine ([8]; intrajejunal, after 4 hours): 0.01% | Percentage of original 59Fe dose, Reticuloendothelial System (Bone Marrow) ([8]; intrajejunal, after 4 hours, estimated): ~60%
